pIC50: −log10 of the molar value.
tested on: CP50-MEL-B; test: cells; format: functional, cell-based, Homo sapiens; conditions: Homo sapiens, CP50-MEL-B;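 also: growth inhibition of the human cell line, measured with a cell viability read-out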
Description: SANGER: Inhibition of human CP50-MEL-B cell growth in a cell viability assay.

| Compound | pIC50 |
| --- | --- |
| CS(=O)(=O)c1ccc(C(=O)Nc2ccc(Cl)c(-c3ccccn3)c2)c(Cl)c1 [VISMODEGIB] | < 5.00 |

tested on: DBTRG-05MG; test: cells; format: functional, cell-based, Homo sapiens; conditions: Homo sapiens, DBTRG-05MG;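 also: cell viability assay measuring growth inhibition of human DBTRG-05MG cells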
Description: SANGER: Inhibition of human DBTRG-05MG cell growth in a cell viability assay.

| Compound | pIC50 |
| --- | --- |
| CS(=O)(=O)c1ccc(C(=O)Nc2ccc(Cl)c(-c3ccccn3)c2)c(Cl)c1 [VISMODEGIB] | < 5.00 |

tested on: DK-MG; test: cells; format: functional, cell-based, Homo sapiens; conditions: Homo sapiens, DK-MG;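 also: growth inhibition of DK-MG cells, read out with a cell viability assay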
Description: SANGER: Inhibition of human DK-MG cell growth in a cell viability assay.

| Compound | pIC50 |
| --- | --- |
| CS(=O)(=O)c1ccc(C(=O)Nc2ccc(Cl)c(-c3ccccn3)c2)c(Cl)c1 [VISMODEGIB] | < 5.00 |

tested on: DOK; test: cells; format: functional, cell-based, Homo sapiens; conditions: Homo sapiens, DOK;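 also: cell viability assay read-out, values reflect inhibition of cell growth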
Description: SANGER: Inhibition of human DOK cell growth in a cell viability assay.

| Compound | pIC50 |
| --- | --- |
| CS(=O)(=O)c1ccc(C(=O)Nc2ccc(Cl)c(-c3ccccn3)c2)c(Cl)c1 [VISMODEGIB] | < 5.00 |

tested on: FaDu; test: cells; format: functional, cell-based, Homo sapiens; conditions: Homo sapiens, FaDu;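 also: cell viability readout of growth inhibition in FaDu cells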
Description: SANGER: Inhibition of human FADU cell growth in a cell viability assay.

| Compound | pIC50 |
| --- | --- |
| CS(=O)(=O)c1ccc(C(=O)Nc2ccc(Cl)c(-c3ccccn3)c2)c(Cl)c1 [VISMODEGIB] | < 5.00 |

tested on: H-EMC-SS; test: cells; format: functional, cell-based, Homo sapiens; conditions: Homo sapiens, H-EMC-SS
Description: SANGER: Inhibition of human H-EMC-SS cell growth in a cell viability assay.

| Compound | pIC50 |
| --- | --- |
| CS(=O)(=O)c1ccc(C(=O)Nc2ccc(Cl)c(-c3ccccn3)c2)c(Cl)c1 [VISMODEGIB] | < 5.00 |

tested on: HCC38; test: cells; format: functional, cell-based, Homo sapiens; conditions: Homo sapiens, HCC38;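 also: cell viability assay on the human HCC38 cell line, with IC50 marking the concentration that inhibits cell growth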
Description: SANGER: Inhibition of human HCC38 cell growth in a cell viability assay.

| Compound | pIC50 |
| --- | --- |
| CS(=O)(=O)c1ccc(C(=O)Nc2ccc(Cl)c(-c3ccccn3)c2)c(Cl)c1 [VISMODEGIB] | < 5.00 |

tested on: HOS; test: cells; format: functional, cell-based, Homo sapiens; conditions: Homo sapiens, HOS;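 also: growth inhibition of human HOS cells, read out with a cell viability assay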
Description: SANGER: Inhibition of human HOS cell growth in a cell viability assay.

| Compound | pIC50 |
| --- | --- |
| CS(=O)(=O)c1ccc(C(=O)Nc2ccc(Cl)c(-c3ccccn3)c2)c(Cl)c1 [VISMODEGIB] | < 5.00 |

tested on: HSC-3; test: cells; format: functional, cell-based, Homo sapiens; conditions: Homo sapiens, HSC-3
Description: SANGER: Inhibition of human HSC-3 cell growth in a cell viability assay.

| Compound | pIC50 |
| --- | --- |
| CS(=O)(=O)c1ccc(C(=O)Nc2ccc(Cl)c(-c3ccccn3)c2)c(Cl)c1 [VISMODEGIB] | < 5.00 |

tested on: HT-1080; test: cells; format: functional, cell-based, Homo sapiens; conditions: Homo sapiens, HT-1080
Description: SANGER: Inhibition of human HT-1080 cell growth in a cell viability assay.

| Compound | pIC50 |
| --- | --- |
| CS(=O)(=O)c1ccc(C(=O)Nc2ccc(Cl)c(-c3ccccn3)c2)c(Cl)c1 [VISMODEGIB] | < 5.00 |

tested on: HT-3; test: cells; format: functional, cell-based, Homo sapiens; conditions: Homo sapiens, HT-3;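 also: growth inhibition measured with a cell viability readout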
Description: SANGER: Inhibition of human HT-3 cell growth in a cell viability assay.

| Compound | pIC50 |
| --- | --- |
| CS(=O)(=O)c1ccc(C(=O)Nc2ccc(Cl)c(-c3ccccn3)c2)c(Cl)c1 [VISMODEGIB] | < 5.00 |

tested on: HTC-C3; test: cells; format: functional, cell-based, Homo sapiens; conditions: Homo sapiens, HTC-C3;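 also: inhibition of cell growth, read out with a cell viability assay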
Description: SANGER: Inhibition of human HTC-C3 cell growth in a cell viability assay.

| Compound | pIC50 |
| --- | --- |
| CS(=O)(=O)c1ccc(C(=O)Nc2ccc(Cl)c(-c3ccccn3)c2)c(Cl)c1 [VISMODEGIB] | < 5.00 |

tested on: HuO9; test: cells; format: functional, cell-based, Homo sapiens; conditions: Homo sapiens, HuO9;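 also: growth inhibition of HuO9 cells, read out with a cell viability assay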
Description: SANGER: Inhibition of human HuO9 cell growth in a cell viability assay.

| Compound | pIC50 |
| --- | --- |
| CS(=O)(=O)c1ccc(C(=O)Nc2ccc(Cl)c(-c3ccccn3)c2)c(Cl)c1 [VISMODEGIB] | < 5.00 |

tested on: J82; test: cells; format: functional, cell-based, Homo sapiens; conditions: Homo sapiens, J82;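 also: growth inhibition of J82 cells, read out with a cell viability assay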
Description: SANGER: Inhibition of human J82 cell growth in a cell viability assay.

| Compound | pIC50 |
| --- | --- |
| CS(=O)(=O)c1ccc(C(=O)Nc2ccc(Cl)c(-c3ccccn3)c2)c(Cl)c1 [VISMODEGIB] | < 5.00 |

tested on: MC-IXC; test: cells; format: functional, cell-based, Homo sapiens; conditions: Homo sapiens, MC-IXC;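 also: growth inhibition of MC-IXC cells, read out with a cell viability assay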
Description: SANGER: Inhibition of human MC-IXC cell growth in a cell viability assay.

| Compound | pIC50 |
| --- | --- |
| CS(=O)(=O)c1ccc(C(=O)Nc2ccc(Cl)c(-c3ccccn3)c2)c(Cl)c1 [VISMODEGIB] | < 5.00 |

tested on: MHH-ES-1; test: cells; format: functional, cell-based, Homo sapiens; conditions: Homo sapiens, MHH-ES-1;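 also: cell growth inhibition measured by a cell viability assay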
Description: SANGER: Inhibition of human MHH-ES-1 cell growth in a cell viability assay.

| Compound | pIC50 |
| --- | --- |
| CS(=O)(=O)c1ccc(C(=O)Nc2ccc(Cl)c(-c3ccccn3)c2)c(Cl)c1 [VISMODEGIB] | < 5.00 |

tested on: MKN-1; test: cells; format: functional, cell-based, Homo sapiens; conditions: Homo sapiens, MKN-1;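 also: growth inhibition of human MKN1 cells, read out by a cell viability measurement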
Description: SANGER: Inhibition of human MKN1 cell growth in a cell viability assay.

| Compound | pIC50 |
| --- | --- |
| CS(=O)(=O)c1ccc(C(=O)Nc2ccc(Cl)c(-c3ccccn3)c2)c(Cl)c1 [VISMODEGIB] | < 5.00 |

tested on: NCI-H1563; test: cells; format: functional, cell-based, Homo sapiens; conditions: Homo sapiens, NCI-H1563;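 also: growth inhibition of human NCI-H1563 cells, read out with a cell viability assay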
Description: SANGER: Inhibition of human NCI-H1563 cell growth in a cell viability assay.

| Compound | pIC50 |
| --- | --- |
| CS(=O)(=O)c1ccc(C(=O)Nc2ccc(Cl)c(-c3ccccn3)c2)c(Cl)c1 [VISMODEGIB] | < 5.00 |

tested on: NCI-H2029; test: cells; format: functional, cell-based, Homo sapiens; conditions: Homo sapiens, NCI-H2029;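 also: Read-out is a viability assay on the cultured cells, and IC50 is the concentration that suppresses cell growth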
Description: SANGER: Inhibition of human NCI-H2029 cell growth in a cell viability assay.

| Compound | pIC50 |
| --- | --- |
| CS(=O)(=O)c1ccc(C(=O)Nc2ccc(Cl)c(-c3ccccn3)c2)c(Cl)c1 [VISMODEGIB] | < 5.00 |

tested on: NCI-H2052; test: cells; format: functional, cell-based, Homo sapiens; conditions: Homo sapiens, NCI-H2052;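 also: growth inhibition of NCI-H2052 cells, read out with a cell viability assay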
Description: SANGER: Inhibition of human NCI-H2052 cell growth in a cell viability assay.

| Compound | pIC50 |
| --- | --- |
| CS(=O)(=O)c1ccc(C(=O)Nc2ccc(Cl)c(-c3ccccn3)c2)c(Cl)c1 [VISMODEGIB] | < 5.00 |

tested on: NCI-H292; test: cells; format: functional, cell-based, Homo sapiens; conditions: Homo sapiens, NCI-H292;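 also: growth inhibition of NCI-H292 cells, read out with a cell viability assay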
Description: SANGER: Inhibition of human NCI-H292 cell growth in a cell viability assay.

| Compound | pIC50 |
| --- | --- |
| CS(=O)(=O)c1ccc(C(=O)Nc2ccc(Cl)c(-c3ccccn3)c2)c(Cl)c1 [VISMODEGIB] | < 5.00 |

tested on: OC-314; test: cells; format: functional, cell-based, Homo sapiens; conditions: Homo sapiens, OC-314
Description: SANGER: Inhibition of human OC-314 cell growth in a cell viability assay.

| Compound | pIC50 |
| --- | --- |
| CS(=O)(=O)c1ccc(C(=O)Nc2ccc(Cl)c(-c3ccccn3)c2)c(Cl)c1 [VISMODEGIB] | < 5.00 |

tested on: PANC-08-13; test: cells; format: functional, cell-based, Homo sapiens; conditions: Homo sapiens, PANC-08-13;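 also: cell growth inhibition, measured with a cell viability assay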
Description: SANGER: Inhibition of human PANC-08-13 cell growth in a cell viability assay.

| Compound | pIC50 |
| --- | --- |
| CS(=O)(=O)c1ccc(C(=O)Nc2ccc(Cl)c(-c3ccccn3)c2)c(Cl)c1 [VISMODEGIB] | < 5.00 |

tested on: RT-112; test: cells; format: functional, cell-based, Homo sapiens; conditions: Homo sapiens, RT-112
Description: SANGER: Inhibition of human RT-112 cell growth in a cell viability assay.

| Compound | pIC50 |
| --- | --- |
| CS(=O)(=O)c1ccc(C(=O)Nc2ccc(Cl)c(-c3ccccn3)c2)c(Cl)c1 [VISMODEGIB] | < 5.00 |

tested on: SNU-387; test: cells; format: functional, cell-based, Homo sapiens; conditions: Homo sapiens, SNU-387
Description: SANGER: Inhibition of human SNU-387 cell growth in a cell viability assay.

| Compound | pIC50 |
| --- | --- |
| CS(=O)(=O)c1ccc(C(=O)Nc2ccc(Cl)c(-c3ccccn3)c2)c(Cl)c1 [VISMODEGIB] | < 5.00 |

tested on: SW1783; test: cells; format: functional, cell-based, Homo sapiens; conditions: Homo sapiens, SW1783;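 also: cell growth inhibition measured with a viability assay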
Description: SANGER: Inhibition of human SW1783 cell growth in a cell viability assay.

| Compound | pIC50 |
| --- | --- |
| CS(=O)(=O)c1ccc(C(=O)Nc2ccc(Cl)c(-c3ccccn3)c2)c(Cl)c1 [VISMODEGIB] | < 5.00 |

tested on: SW837; test: cells; format: functional, cell-based, Homo sapiens; conditions: Homo sapiens, SW837;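 also: growth inhibition of SW837 cells, determined with a cell viability assay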
Description: SANGER: Inhibition of human SW837 cell growth in a cell viability assay.

| Compound | pIC50 |
| --- | --- |
| CS(=O)(=O)c1ccc(C(=O)Nc2ccc(Cl)c(-c3ccccn3)c2)c(Cl)c1 [VISMODEGIB] | < 5.00 |

tested on: 786-0; test: cells; format: functional, cell-based, Homo sapiens; conditions: Homo sapiens
Description: SANGER: Inhibition of human 786-0 cell growth in a cell viability assay.

| Compound | pIC50 |
| --- | --- |
| CS(=O)(=O)c1ccc(C(=O)Nc2ccc(Cl)c(-c3ccccn3)c2)c(Cl)c1 [VISMODEGIB] | < 5.00 |

tested on: A204; test: cells; format: functional, cell-based, Homo sapiens; conditions: Homo sapiens, A204;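 also: growth inhibition of human A204 cells, read out with a cell viability assay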
Description: SANGER: Inhibition of human A204 cell growth in a cell viability assay.

| Compound | pIC50 |
| --- | --- |
| CS(=O)(=O)c1ccc(C(=O)Nc2ccc(Cl)c(-c3ccccn3)c2)c(Cl)c1 [VISMODEGIB] | < 5.00 |

tested on: A2058; test: cells; format: functional, cell-based, Homo sapiens; conditions: Homo sapiens, A2058;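 also: reduction of A2058 cell growth, read out with a viability assay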
Description: SANGER: Inhibition of human A2058 cell growth in a cell viability assay.

| Compound | pIC50 |
| --- | --- |
| CS(=O)(=O)c1ccc(C(=O)Nc2ccc(Cl)c(-c3ccccn3)c2)c(Cl)c1 [VISMODEGIB] | < 5.00 |

tested on: A-431; test: cells; format: functional, cell-based, Homo sapiens; conditions: Homo sapiens, A-431;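 also: growth inhibition of A-431 cells, determined with a cell viability read-out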
Description: SANGER: Inhibition of human A431 cell growth in a cell viability assay.

| Compound | pIC50 |
| --- | --- |
| CS(=O)(=O)c1ccc(C(=O)Nc2ccc(Cl)c(-c3ccccn3)c2)c(Cl)c1 [VISMODEGIB] | < 5.00 |

tested on: ABC-1; test: cells; format: functional, cell-based, Homo sapiens; conditions: Homo sapiens, ABC-1;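 also: growth inhibition of human ABC-1 cells, read out by a cell viability assay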
Description: SANGER: Inhibition of human ABC-1 cell growth in a cell viability assay.

| Compound | pIC50 |
| --- | --- |
| CS(=O)(=O)c1ccc(C(=O)Nc2ccc(Cl)c(-c3ccccn3)c2)c(Cl)c1 [VISMODEGIB] | < 5.00 |

tested on: AN3-CA; test: cells; format: functional, cell-based, Homo sapiens; conditions: Homo sapiens, AN3-CA;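 also: growth inhibition of human AN3-CA cells measured by a cell viability assay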
Description: SANGER: Inhibition of human AN3-CA cell growth in a cell viability assay.

| Compound | pIC50 |
| --- | --- |
| CS(=O)(=O)c1ccc(C(=O)Nc2ccc(Cl)c(-c3ccccn3)c2)c(Cl)c1 [VISMODEGIB] | < 5.00 |

tested on: BCPAP; test: cells; format: functional, cell-based, Homo sapiens; conditions: Homo sapiens, BCPAP;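 also: growth inhibition of BCPAP cells, read out in a cell viability assay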
Description: SANGER: Inhibition of human BCPAP cell growth in a cell viability assay.

| Compound | pIC50 |
| --- | --- |
| CS(=O)(=O)c1ccc(C(=O)Nc2ccc(Cl)c(-c3ccccn3)c2)c(Cl)c1 [VISMODEGIB] | < 5.00 |

tested on: BHY; test: cells; format: functional, cell-based, Homo sapiens; conditions: Homo sapiens, BHY;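 also: cell growth inhibition read out by a viability assay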
Description: SANGER: Inhibition of human BHY cell growth in a cell viability assay.

| Compound | pIC50 |
| --- | --- |
| CS(=O)(=O)c1ccc(C(=O)Nc2ccc(Cl)c(-c3ccccn3)c2)c(Cl)c1 [VISMODEGIB] | < 5.00 |

tested on: BT-20; test: cells; format: functional, cell-based, Homo sapiens; conditions: Homo sapiens, BT-20;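 also: cell viability assay measuring suppression of growth in human BT-20 cells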
Description: SANGER: Inhibition of human BT-20 cell growth in a cell viability assay.

| Compound | pIC50 |
| --- | --- |
| CS(=O)(=O)c1ccc(C(=O)Nc2ccc(Cl)c(-c3ccccn3)c2)c(Cl)c1 [VISMODEGIB] | < 5.00 |

tested on: C-33-A; test: cells; format: functional, cell-based, Homo sapiens; conditions: Homo sapiens, C-33-A;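 also: cell viability assay measuring growth inhibition of C-33-A cells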
Description: SANGER: Inhibition of human C-33-A cell growth in a cell viability assay.

| Compound | pIC50 |
| --- | --- |
| CS(=O)(=O)c1ccc(C(=O)Nc2ccc(Cl)c(-c3ccccn3)c2)c(Cl)c1 [VISMODEGIB] | < 5.00 |

tested on: UACC-893; test: cells; format: functional, cell-based, Homo sapiens; conditions: Homo sapiens, UACC-893
Description: SANGER: Inhibition of human UACC-893 cell growth in a cell viability assay.

| Compound | pIC50 |
| --- | --- |
| CS(=O)(=O)c1ccc(C(=O)Nc2ccc(Cl)c(-c3ccccn3)c2)c(Cl)c1 [VISMODEGIB] | < 5.00 |

tested on: VMRC-RCZ; test: cells; format: functional, cell-based, Homo sapiens; conditions: Homo sapiens, VMRC-RCZ;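 also: growth inhibition measured with a cell viability assay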
Description: SANGER: Inhibition of human VMRC-RCZ cell growth in a cell viability assay.

| Compound | pIC50 |
| --- | --- |
| CS(=O)(=O)c1ccc(C(=O)Nc2ccc(Cl)c(-c3ccccn3)c2)c(Cl)c1 [VISMODEGIB] | < 5.00 |

tested on: CHL-1; test: cells; format: functional, cell-based, Homo sapiens; conditions: Homo sapiens, CHL-1;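 also: cell growth inhibition, read out with a cell viability assay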
Description: SANGER: Inhibition of human CHL-1 cell growth in a cell viability assay.

| Compound | pIC50 |
| --- | --- |
| CS(=O)(=O)c1ccc(C(=O)Nc2ccc(Cl)c(-c3ccccn3)c2)c(Cl)c1 [VISMODEGIB] | < 5.00 |

tested on: COLO-679; test: cells; format: functional, cell-based, Homo sapiens; conditions: Homo sapiens, COLO-679
Description: SANGER: Inhibition of human COLO-679 cell growth in a cell viability assay.

| Compound | pIC50 |
| --- | --- |
| CS(=O)(=O)c1ccc(C(=O)Nc2ccc(Cl)c(-c3ccccn3)c2)c(Cl)c1 [VISMODEGIB] | < 5.00 |

tested on: COLO-680N; test: cells; format: functional, cell-based, Homo sapiens; conditions: Homo sapiens, COLO-680N;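 also: cell viability assay used to measure inhibition of COLO-680N cell growth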
Description: SANGER: Inhibition of human COLO-680N cell growth in a cell viability assay.

| Compound | pIC50 |
| --- | --- |
| CS(=O)(=O)c1ccc(C(=O)Nc2ccc(Cl)c(-c3ccccn3)c2)c(Cl)c1 [VISMODEGIB] | < 5.00 |
